Assay [1] concerns the target Peroxisome proliferator-activated receptor gamma/Nuclear receptor coactivator 2 (Homo sapiens, UniProt P37231). It is filed as functional.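 Note: agonist potency for raising coactivator recruitment to the receptor.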
In assay [2] the target is Peroxisome proliferator-activated receptor gamma/Nuclear receptor coactivator 1 (Homo sapiens, UniProt P37231). It is filed as functional.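 Note: agonist potency as compounds enhance coactivator SRC-1 recruitment to PPARgamma.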
For assay [3], the target named is Peroxisome proliferator-activated receptor gamma/Nuclear receptor coactivator 3 (Homo sapiens, UniProt P37231). It is filed as functional.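 Note: agonist potency for raising coactivator recruitment to the receptor.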
The nature of assay [4]: inhibitors of firefly luciferase expression or activity, dose response, H4 neuroglioma cells, luminescence (AID 1990). It is filed as functional, cell-based.
The nature of assay [5]: Luminescence Cell-Based Dose Response HTS to Identify Inhibitors of 5'UTR Stem-Loop Driven Prion Protein mRNA Translation in H4 Neuroglioblastoma Cells. [Related pubchem assays: 1827 (Project Summary), 1813 (Primary HTS)]. It is filed as functional.
Assay [6] deals with T1, Heat shock factor protein 1 (Mus musculus, UniProt P38532).
T1 sequence (P38532 whole entry): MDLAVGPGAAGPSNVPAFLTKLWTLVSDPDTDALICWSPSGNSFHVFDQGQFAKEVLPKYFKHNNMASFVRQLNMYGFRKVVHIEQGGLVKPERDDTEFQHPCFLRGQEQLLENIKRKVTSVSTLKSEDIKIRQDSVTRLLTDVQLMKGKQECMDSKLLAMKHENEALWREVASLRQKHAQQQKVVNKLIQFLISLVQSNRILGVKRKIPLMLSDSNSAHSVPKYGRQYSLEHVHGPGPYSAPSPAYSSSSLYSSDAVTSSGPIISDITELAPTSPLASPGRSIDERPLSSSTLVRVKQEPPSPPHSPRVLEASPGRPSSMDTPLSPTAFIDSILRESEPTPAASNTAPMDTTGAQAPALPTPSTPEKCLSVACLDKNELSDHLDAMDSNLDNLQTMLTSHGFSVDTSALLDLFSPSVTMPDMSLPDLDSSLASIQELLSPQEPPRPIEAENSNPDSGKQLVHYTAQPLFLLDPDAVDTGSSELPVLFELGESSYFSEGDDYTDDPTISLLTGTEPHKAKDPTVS
Nature of the assay: inhibition of MG132-induced HSE-luciferase signal, confirmation, cell-based, NIH3T3, luminescence, dose retest (AID 2382).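 Note: NIH3T3 fibroblasts with HSF1-driven luciferase reporter stressed by proteasome inhibitor MG132; luminescence from HSF1-driven luciferase expression after 8 hours of MG132 stress.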 It is filed as functional.

Assay [7] in a line: Luminescence-based counterscreen assay for KLF5 inhibitors: dose response cell-based high throughput screening assay to identify cytotoxic compounds using the IEC-6 intestinal epithelial cell line. [Related pubchem assays: 1700 (Primary screen.), 1834 (Confirmation screen.), 1858 (Summary AID.), 1905 (Counterscreen.)]. It is filed as functional. On the technique in general: A counterscreen serves to expose hits that act by an unwanted route or on another target.

A short description of assay [8]: A549 cell cytotoxicity, dose response, cytotoxicity control, plate reader, cherry-pick, antagonist series (AID 743412). It is filed as functional, cell-based.
Assay [9] in a line: LGR2 antagonists, dose response, cell-based, HEK293, CRE-luciferase reporter, cherry pick, set 2 (AID 743343).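 Note: transfected cells were stimulated with diluted bursicon conditioned medium after compound addition.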 It is filed as functional.
A short description of assay [10]: MC4R antagonists, dose response, counter-screen for LGR2 antagonist project, cell-based, plate reader, cherry pick (AID 743444).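 Note: transfected HEK 293 cells stimulated with alpha-MSH peptide; potency of inhibitors of the alpha-MSH evoked signal.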 It is filed as functional.
Assay [11] in a line: HEK293 cell cytotoxicity, dose response, cytotoxicity control, plate reader, cherry-picked samples (AID 743446). It is filed as functional, cell-based.
Assay [12] in a line: inhibitors of Bluetongue virus cytopathic effect, confirmation, arbovirus, BSR cells (AID 1250).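 Note: protection from viral cytopathic effect measured as cell viability by ATP luminescence.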 It is filed as functional.
The subject of a further assay is INS1. Nature of the assay: beta cell apoptosis inhibitors, cytokine rescue, dose response, luminescence, retest (AID 449756).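 Note: cell death triggered by IL-1 beta plus TNF-alpha plus IFN-gamma mixture; protective hits raise ATP signal compared with cytokine alone wells.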 The following applies: Rattus norvegicus. It is filed as functional, cell-based.
Assay [13] in a line: NIH-3T3 fibroblast cytotoxicity, dose response, cytotoxicity control, cell-based, fluorescence, Alamar Blue, secondary assay (AID 2327).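 Note: NIH-3T3 mouse fibroblasts cultured with fluconazole at 8 µg/mL.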 It is filed as functional.
A short description of assay [14]: insulin promoter down-regulators in MIN6 cells, imaging, high-content screening, mouse beta cells (AID 1628). It is filed as functional.
A short description of assay [15]: cells. It is filed as functional, cell-based.
A short description of assay [16]: cytotoxicity in MIN6 insulinoma cells, dose response, cytotoxicity control, cell-based, mouse insulinoma (AID 2122).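 Note: confirmatory high-throughput counterscreen run to flag cytotoxic compounds; mouse MIN-6 beta cells carrying an insulin promoter eGFP reporter.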 It is filed as functional.
Assay [17] can be described thus: C. albicans growth with fluconazole, confirmation, fluorescence, retest (AID 2467). It is filed as functional, cell-based.
Assay [18] is described as follows: cells. It is filed as functional, cell-based. The source holds these as a separate data set.
For the next assay, the target named is Nonstructural protein 1 (Influenza A virus, UniProt Q194T2). It is filed as functional, Influenza A virus (A/California/07/2009(H1N1)).
A further assay concerns HEK293. Kind of assay: inhibitors of LMP1-driven NF-kB reporter, dose response, cell-based, HEK293, luciferase, cherry-pick (AID 588343). It is filed as functional. The settings on record: Homo sapiens.
A short description of assay [19]: HepG2 cell cytotoxicity, dose response, cytotoxicity control, plate reader, cherry-pick, antagonist series (AID 743416). It is filed as functional, cell-based.

The source made the active and inactive calls.

Chain of Peroxisome proliferator-activated receptor gamma/Nuclear receptor coactivator 3 (P37231 whole entry): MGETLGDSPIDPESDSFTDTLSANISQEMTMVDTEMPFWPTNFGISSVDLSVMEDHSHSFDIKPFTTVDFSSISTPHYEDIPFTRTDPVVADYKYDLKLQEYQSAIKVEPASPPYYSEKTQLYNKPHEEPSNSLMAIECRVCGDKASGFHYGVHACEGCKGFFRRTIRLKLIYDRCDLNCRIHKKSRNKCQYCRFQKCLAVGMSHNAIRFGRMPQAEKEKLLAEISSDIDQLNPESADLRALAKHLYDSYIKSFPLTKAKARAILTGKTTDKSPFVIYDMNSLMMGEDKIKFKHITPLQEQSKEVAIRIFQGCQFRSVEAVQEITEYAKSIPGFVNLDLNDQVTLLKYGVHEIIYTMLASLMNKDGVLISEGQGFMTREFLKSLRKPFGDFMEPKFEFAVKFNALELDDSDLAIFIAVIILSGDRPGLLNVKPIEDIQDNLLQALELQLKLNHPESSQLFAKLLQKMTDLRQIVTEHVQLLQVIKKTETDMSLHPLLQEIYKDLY
Chain of Peroxisome proliferator-activated receptor gamma/Nuclear receptor coactivator 3 (Q9Y6Q9 whole entry, further chain): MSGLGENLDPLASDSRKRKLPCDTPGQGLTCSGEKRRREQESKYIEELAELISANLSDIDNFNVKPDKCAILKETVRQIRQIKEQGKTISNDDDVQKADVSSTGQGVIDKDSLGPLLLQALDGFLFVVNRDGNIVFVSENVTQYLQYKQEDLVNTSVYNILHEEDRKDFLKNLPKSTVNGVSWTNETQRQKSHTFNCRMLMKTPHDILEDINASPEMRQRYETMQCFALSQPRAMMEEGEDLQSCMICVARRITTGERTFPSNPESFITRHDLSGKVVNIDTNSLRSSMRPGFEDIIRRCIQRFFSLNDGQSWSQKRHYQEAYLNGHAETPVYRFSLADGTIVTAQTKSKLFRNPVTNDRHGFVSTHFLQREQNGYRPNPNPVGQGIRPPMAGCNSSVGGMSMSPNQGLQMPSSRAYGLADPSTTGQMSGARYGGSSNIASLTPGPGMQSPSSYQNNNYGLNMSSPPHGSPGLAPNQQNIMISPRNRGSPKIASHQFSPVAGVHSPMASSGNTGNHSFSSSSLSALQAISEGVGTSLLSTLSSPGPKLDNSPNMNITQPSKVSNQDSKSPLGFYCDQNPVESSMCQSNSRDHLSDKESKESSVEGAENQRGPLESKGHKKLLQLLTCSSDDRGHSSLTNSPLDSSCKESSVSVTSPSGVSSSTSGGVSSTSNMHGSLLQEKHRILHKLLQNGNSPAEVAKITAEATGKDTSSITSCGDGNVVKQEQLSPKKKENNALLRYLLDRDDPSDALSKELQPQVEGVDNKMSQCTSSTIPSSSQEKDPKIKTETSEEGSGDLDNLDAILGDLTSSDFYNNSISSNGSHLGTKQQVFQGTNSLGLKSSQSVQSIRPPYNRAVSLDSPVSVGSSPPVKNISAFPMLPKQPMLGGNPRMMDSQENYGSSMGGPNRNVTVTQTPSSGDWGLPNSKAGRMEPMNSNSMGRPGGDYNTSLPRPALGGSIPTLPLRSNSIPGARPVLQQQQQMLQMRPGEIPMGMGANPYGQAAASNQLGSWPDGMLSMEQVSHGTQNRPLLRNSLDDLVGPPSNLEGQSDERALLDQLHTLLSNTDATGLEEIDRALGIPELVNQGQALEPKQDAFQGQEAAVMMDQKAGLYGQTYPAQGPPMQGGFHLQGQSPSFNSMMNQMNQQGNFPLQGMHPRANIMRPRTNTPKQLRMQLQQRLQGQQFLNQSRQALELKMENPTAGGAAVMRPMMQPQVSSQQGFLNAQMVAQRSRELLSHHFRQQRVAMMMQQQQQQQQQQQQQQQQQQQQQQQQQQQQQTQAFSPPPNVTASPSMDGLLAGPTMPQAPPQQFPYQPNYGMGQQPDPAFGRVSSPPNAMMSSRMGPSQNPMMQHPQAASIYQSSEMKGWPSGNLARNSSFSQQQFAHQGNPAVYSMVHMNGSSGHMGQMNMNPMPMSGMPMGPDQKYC
Chain of Peroxisome proliferator-activated receptor gamma/Nuclear receptor coactivator 2 (P37231 whole entry): as the sequence (P37231 whole entry) above
Chain of Peroxisome proliferator-activated receptor gamma/Nuclear receptor coactivator 2 (Q15596 whole entry, further chain): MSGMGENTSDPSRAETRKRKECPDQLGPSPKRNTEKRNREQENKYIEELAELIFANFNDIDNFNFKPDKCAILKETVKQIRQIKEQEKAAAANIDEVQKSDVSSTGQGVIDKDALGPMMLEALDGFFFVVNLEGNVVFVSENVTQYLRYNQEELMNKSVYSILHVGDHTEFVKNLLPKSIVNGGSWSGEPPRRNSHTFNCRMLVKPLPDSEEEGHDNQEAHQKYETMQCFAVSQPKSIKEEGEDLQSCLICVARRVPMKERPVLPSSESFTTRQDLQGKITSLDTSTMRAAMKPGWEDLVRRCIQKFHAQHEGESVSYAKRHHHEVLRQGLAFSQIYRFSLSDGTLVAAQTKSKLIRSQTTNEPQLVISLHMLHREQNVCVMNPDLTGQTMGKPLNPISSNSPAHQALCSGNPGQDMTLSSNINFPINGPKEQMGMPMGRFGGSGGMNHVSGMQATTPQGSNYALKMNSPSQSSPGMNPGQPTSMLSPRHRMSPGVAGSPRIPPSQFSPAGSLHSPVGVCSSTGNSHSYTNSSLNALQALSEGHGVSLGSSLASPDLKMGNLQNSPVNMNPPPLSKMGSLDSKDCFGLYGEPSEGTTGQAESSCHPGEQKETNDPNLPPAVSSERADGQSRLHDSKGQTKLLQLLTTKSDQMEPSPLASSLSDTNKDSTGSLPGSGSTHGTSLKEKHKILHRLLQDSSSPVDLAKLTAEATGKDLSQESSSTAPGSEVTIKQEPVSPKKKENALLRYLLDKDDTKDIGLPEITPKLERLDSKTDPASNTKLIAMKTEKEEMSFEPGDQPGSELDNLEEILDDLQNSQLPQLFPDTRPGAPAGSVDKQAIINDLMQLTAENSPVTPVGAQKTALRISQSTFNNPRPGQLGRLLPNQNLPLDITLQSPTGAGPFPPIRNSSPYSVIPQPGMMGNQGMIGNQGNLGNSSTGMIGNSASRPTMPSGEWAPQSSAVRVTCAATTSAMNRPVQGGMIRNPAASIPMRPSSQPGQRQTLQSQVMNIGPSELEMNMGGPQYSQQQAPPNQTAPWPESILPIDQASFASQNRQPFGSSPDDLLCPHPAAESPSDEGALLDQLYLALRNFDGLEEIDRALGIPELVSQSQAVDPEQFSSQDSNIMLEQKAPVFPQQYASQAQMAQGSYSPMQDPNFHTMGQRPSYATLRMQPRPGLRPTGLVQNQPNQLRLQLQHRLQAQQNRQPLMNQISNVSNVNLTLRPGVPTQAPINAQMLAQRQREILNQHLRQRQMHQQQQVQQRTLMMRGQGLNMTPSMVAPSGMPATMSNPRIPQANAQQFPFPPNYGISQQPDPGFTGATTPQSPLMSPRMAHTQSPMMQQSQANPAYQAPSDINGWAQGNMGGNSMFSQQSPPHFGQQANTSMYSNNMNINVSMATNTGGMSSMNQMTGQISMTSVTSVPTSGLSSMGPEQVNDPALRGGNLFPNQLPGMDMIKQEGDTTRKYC
Chain of Nonstructural protein 1 (Q194T2 whole entry): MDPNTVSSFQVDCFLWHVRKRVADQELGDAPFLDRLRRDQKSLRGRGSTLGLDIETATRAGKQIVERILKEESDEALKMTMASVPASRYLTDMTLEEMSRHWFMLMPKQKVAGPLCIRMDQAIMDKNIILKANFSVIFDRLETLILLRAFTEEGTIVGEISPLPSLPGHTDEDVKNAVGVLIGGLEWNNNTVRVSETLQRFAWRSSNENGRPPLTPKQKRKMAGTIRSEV

The term EC50 denotes the concentration at which the effect is half-maximal. `N#Cc1cc(O)c(-n2nnc3ccccc32)cc1C#N`: the EC50 in assay [1], in [2] and in assay [3] was > 79.4 µM (not active) throughout.

As a reminder, the IC50 is the concentration at which inhibition is half-maximal. Usually AC50 stands for the concentration giving half of the maximal activity seen. Take `CC1CCN(c2ccc(-c3cccs3)nn2)CC1`: the EC50 in assay [4] was 8.6 µM (active); in [5] it was 10.4 µM (active); in assay [6], 2.78 µM (active). Moreover, the IC50 in assay [7] was 37.5 µM (not active). The AC50 in assay [8] is 29.4 µM (active); in [9], 0.851 µM (active); in assay [10], 1.43 µM (active); in assay [11], 30.9 µM (active).

For `O=C(Nc1nc2ccccc2s1)c1cc(-c2ccccc2)nn1-c1ccccc1`, the half-inhibitory concentration (IC50) in assay [12] was 47.4 µM (active). Moreover, the AC50 with INS1 was 3.62 µM (active).

Regarding `Cc1nn(Cc2c(F)cccc2Cl)c(C)c1[N+](=O)[O-]`, the EC50 in assay [1], in assay [2] and in [3] was > 79.4 µM (not active) throughout.

Regarding `COc1cccc(/C=N/Nc2nccnc2Cl)c1O`, the EC50 is > 150 µM (inactive) in assay [13], > 350 µM (not active) in the assay “cells [15]”, 1.52 µM (active) in assay [17] and 6.97 µM (active) in “cells [18]”. Further, the IC50 in assay [14] was 3.57 µM (active); in [16], 3.97 µM (active); in [7], 9.16 µM (active); on Nonstructural protein 1, 7.59 µM (active). Moreover, the concentration at half-maximal activity (AC50) with HEK293 was 2.73 µM (active); in [8] it was 4.2 µM (active); in assay [19], 2.48 µM (active); in assay [9], 3.7 µM (active); in assay [10], 3.39 µM (active); in assay [11], 6.83 µM (active).

The values above are taken from ChEMBL document CHEMBL1201862, “PubChem BioAssay data set” (2004).
